Reference: US20230414557A1, “NEW THERAPY CONCEPT FOR THE TREATMENT OF CORONA INFECTIONS, ESPECIALLY COVID-19 INFECTIONS” (priority 2020, published 2023)

Key:
IL-1beta = test: LPS-stimulated production of IL-1beta in human monocytes in vitro (ELISA); assay type: cell-based; conditions: for IL-1beta / effect vs. control inhibition (%): LPS-stimulated human monocytes
Procedure: In cell culture supernatants, the production of IL-1beta is determined by ELISA (Cayman Chemical, Ann Arbor, Michigan, USA).

[1] = system: superoxide production (O2^−-production); test: PMA-stimulated superoxide production (O2−-production) of human monocytes in vitro, INT formazan; assay type: cell-based; conditions: RPMI-1640, 20 hours
NO-production = NO-production in stimulated human monocytes in vitro; assay type: cell-based; conditions: 20 hours
corona viruses = assay type: cell-based, human
COVID-19 [2] = test: thrombocytes from patients suffering from COVID-19 incubated with 1,8-cineole; assay type: cell-based, human; conditions: thrombocytes from COVID-19 patients incubated with 1,8-cineole
From the text: This antiviral effect of 1,8-cineole in COVID-19 infections is completely unexpected.

IL-8 (interleukin-8) = test: production of IL-8 in human monocytes of volunteers; assay type: cell-based; conditions: 1,8-cineole alone
[3] = system: TNF-alpha (tumor necrosis factor-alpha); test: production of TNF-alpha in human monocytes of volunteers; assay type: cell-based; conditions: 1,8-cineole alone
[4] = system: superoxide dismutases (SOD); test: activity of superoxide dismutases; assay type: cell-based
hydrogen peroxide (H2O2) = test: production of hydrogen peroxide; assay type: cell-based; conditions: even at lower concentrations and in the therapeutic range
[5] = cited from earlier work
COVID-19 [6] = conditions: human, in vivo; cited from earlier work
[7] = 1,8-cineole 0.0015 μg/ml (10^−8 mol/l)
[8] = 1,8-cineole 1.2 μg/ml (8 × 10^−6 mol/l)
[9] = 1,8-cineole 1.5 μg/ml (10^−5 mol/l)
[10] = 1,8-cineole 3.0 μg/ml (2 × 10^−5 mol/l)

## CC12CCC(CC1)C(C)(C)O2 [1,8-cineole, 1,3,3-trimethyl-2-oxabicyclo[2.2.2]octane]
IL-1beta; 10^−6 mol/l, compared with the control
  monocyte IL-1beta production, result in words: significantly inhibited
IL-1beta; 10^−6 mol/l, 20 hours
  IL-1beta: 3548 ± 600 pg/5 × 10^−4 cells
  effect vs. control inhibition (%): 32.4 ± 17%
[1]; [7]
  INT-formazan: 5364 ± 229 nmol/10^5
  comparison to control (%): +27.6 ± 4%
[1]; [8]
  INT-formazan: 4099 ± 234 nmol/10^5
  comparison to control (%): −2.5 ± 6%
[1]; [9]
  INT-formazan: 2438 ± 389 nmol/10^5
  comparison to control (%): −42 ± 16%
[1]; [10]
  INT-formazan: 634 ± 139 nmol/10^5
  comparison to control (%): −84.9 ± 22%
NO-production; low subtherapeutic concentrations of 1,8-cineole
  NO-production: inhibit NO-production
NO-production; therapeutic dose range of 1,8-cineole
  NO-production: strong or significant stimulatory effects on NO-production
Corona viruses
  outbreak of infection, especially hypercytokinemia: prevented or reduced
Corona viruses; healthy thrombocytes incubated with COVID-19, subsequently incubation with 1,8-cineole
  virus replication and production of hyperinflammatory cytokines in thrombocytes: inhibited
COVID-19 [2]
  course of infection, especially hypercytokinemia: prevented or attenuated
IL-8 (interleukin-8)
  production of IL-8: significant inhibitory effect
[3]
  production of TNF-alpha: significant inhibitory effect
[4]
  superoxide dismutase activity: partially inhibited
Hydrogen peroxide (H2O2)
  production of H2O2: inhibits
[5]
  solubility in water: insoluble in water

## CCN(CC)CCCC(C)Nc1ccnc2cc(Cl)ccc12 (stereo not shown) [Chloroquine]
COVID-19 [6]
  efficacy in COVID-19: no evidence of efficacy

## C[C@@H]1C[C@H]2[C@@H]3CCC4=CC(=O)C=C[C@]4(C)[C@@]3(F)[C@@H](O)C[C@]2(C)[C@@]1(O)C(=O)CO [dexamethasone, 9-fluoro-16alpha-methylprednisolone]
IL-1beta; dex. 10^−9 mol/l
  IL-1beta: 2655 ± 546 pg/5 × 10^−4 cells
  effect vs. control inhibition (%): 49.5 ± 20%
IL-1beta; dex. 10^−12 mol/l
  IL-1beta: 5245 ± 1027 pg/5 × 10^−4 cells
  effect vs. control inhibition (%): 0.1 ± 19%

## CCN(CCO)CCCC(C)Nc1ccnc2cc(Cl)ccc12 (stereo not shown) [hydroxychloroquine]
COVID-19 [6]
  efficacy in COVID-19: no evidence of efficacy

## Tocilizumab: monoclonal antibody approved for rheumatoid arthritis and cytokine release syndrome
COVID-19 [6]
  efficacy in COVID-19: ineffective
